Assay [1] deals with LeuT. Put plainly: Scintillation proximity assay, time course of 3H-substrate binding to LeuT with or without Na+ pre-incubation. Also on record: species or system Aquifex aeolicus. The conditions noted are these: 3H-Leu 100 nM or 3H-Ala 500 nM, LeuT wild type. As to the method: We bound ^3H-leucine (140 Ci mmol^–1; Moravek) to purified LeuT-variants using the scintillation proximity assay (SPA) as described[17],[18] with 25 ng of purified protein per assay in buffer composed of 50 mM Tris/Mes (pH 8.0), 100 mM NaCl, 1 mM TCEP, 20% glycerol and 1 mM DDM.
Supplementary Figure 5. Pre-incubation of LeuT with Na+ modulates substrate binding.
The time course of binding of (a,c,d) 3H-Leu (100 nM) or (b) 3H-Ala (500 nM) to LeuT wild type (WT; a,b) or LeuT-L400S (c) or -F253A (d) in the absence (open black squares) or presence (filled red circles) of Na+ was measured using the scintillation proximity assay4 (see Methods). Data are shown as mean ± s.e.m. of three technical replicates of a representative experiment performed in parallel (experiments with individual mutants were repeated ≥ 2) and normalized with regard to the steady state level of LeuT-WT. […]

The test system of assay [2] is LeuT. Kind of assay: smFRET imaging of intracellular-labeled LeuT (H7C/R86C), FRET state occupancy and dynamics. The assay is classed as biochemical, Aquifex aeolicus.
Experimental: Fluorescence experiments were performed using a prism-based total internal reflection fluorescence (TIRF) microscope as previously described[15],[16]. Microfluidic imaging chambers passivated with a mixture of PEG and biotin-PEG were prepared with 0.8 µM streptavidin (Invitrogen) and 4 nM biotin-tris-(NTA-Ni^2+)[46]. Fluorophore labeled, His-tagged LeuT molecules were reversibly immobilized to the surface-associated Ni^2+ atoms. LD550 (Cy3) fluorophores were excited by the evanescent wave generated by total internal reflection (TIR) of a 532 nm diode-pumped solid state laser (Opus, Laser Quantum). Photons emitted from LD550 (Cy3) and LD650 (Cy5) were collected using a 1.27 NA 60 × PlanApo water-immersion objective (Nikon) and a MultiCam-LS device (Cairn) with a T635lpxr-UF2 dichroic mirror (Chroma) to separate the spectral channels onto two synchronized sCMOS cameras (Flash 4.0 v2, Hamamatsu). Fluorescence data were acquired using custom software implemented in LabView (National Instruments) at 10 frames per second (100 ms time resolution).
Unless otherwise specified, all experiments were performed at 25 °C in buffer containing 50 mM Tris/Mes (pH 7.0), 10% glycerol, 1 mM DDM (Anatrace), 1 mM 2-mercaptoethanol and 200 mM total salt (KCl and NaCl, as specified). An oxygen-scavenging environment consisting of 0.2 units per ml purified glucose oxidase (Sigma G2133), 1.8 units per μl purified catalase (Sigma C40), 0.1% (v/v) glucose was used in all experiments to minimize photobleaching.
(§1) Analysis of single-molecule fluorescence data was performed using custom software written in MATLAB (MathWorks)[22]. […] FRET traces were calculated as EFRET=IA∕(IA+ID) , where IA and ID are the donor and acceptor fluorescence traces, and set to zero whenever the donor was in the dark state. […] SNRSignal (12:1 on average) is the signal magnitude relative to noise within the fluorescence trace prior to photobleaching, which includes all noise sources, including photon statistics and photophysical noise, in addition to background noise. […]
The test system of assay [3] is LeuT. Kind of assay: smFRET imaging of extracellular-labeled LeuT (K239C/H480C), FRET state occupancy and dynamics. The assay is classed as biochemical, Aquifex aeolicus. Conditions: no substrate.
Experimental: Fluorescence experiments were performed using a prism-based total internal reflection fluorescence (TIRF) microscope as previously described[15],[16]. Microfluidic imaging chambers passivated with a mixture of PEG and biotin-PEG were prepared with 0.8 µM streptavidin (Invitrogen) and 4 nM biotin-tris-(NTA-Ni^2+)[46]. Fluorophore labeled, His-tagged LeuT molecules were reversibly immobilized to the surface-associated Ni^2+ atoms. LD550 (Cy3) fluorophores were excited by the evanescent wave generated by total internal reflection (TIR) of a 532 nm diode-pumped solid state laser (Opus, Laser Quantum). […] Fluorescence data were acquired using custom software implemented in LabView (National Instruments) at 10 frames per second (100 ms time resolution). […]
as §1

Each structure is given as a SMILES string.

`C[C@H](N)C(=O)O` [Ala, alanine]: the “Effect of pre-incubating LeuT with Na+ on the rate of substrate binding” value in assay [1] is listed as “no such delay in binding”.

On to `CC(C)C[C@H](N)C(=O)O` [Leu, leucine], for which the “Effect of pre-incubating LeuT with Na+ on the rate of substrate binding” value in assay [1] is listed as “dramatically slowed”.

As to `[Li+]` [Li^+], the EC50 in assay [2] (LiCl titration in the presence of 250 μM Ala, Hill coefficient fixed at 2.0, read-out: EC50 of dose-response fit of intracellular high-FRET state occupancy) amounted to 100 mM; in assay [2] (LiCl titration in the presence of 250 μM Ala, Hill coefficient fixed at 2.0, read-out: EC50 of dose-response fit of intracellular intermediate-FRET state occupancy) it was 67 mM. Further, the “EC50 for inducing high-FRET state stabilization, fold higher than for Na+” value in assay [3] (extracellular side) is “seven-fold higher”.

On to `[Na+]` [Na^+, sodium], for which the EC50 in assay [2] (NaCl titration in the presence of 250 μM Ala, read-out: EC50 values of dose-response fits of intracellular low-, intermediate- and high-FRET state occupancies) is 8 to 20 mM; in assay [3] (Na+ titration, Hill coefficient fixed at 2.0, read-out: EC50 of dose-response fit of extracellular FRET state occupancy) it was 55 mM.

For the origin of these results see publication PMC5768729, “A partially-open inward-facing intermediate conformation of LeuT is associated with Na^+ release and substrate transport” (Nature Communications, 2018).
